Columns and labels:
[1] = system: DA3 mammary adenocarcinoma; assay: LEFCT-EC in mice bearing DA3 mammary adenocarcinoma; type: in vivo, BALB/c mice
Description: Animals: BALB/c female mice between the ages of 8 to 12 weeks obtained from the breeding colony of Tel-Aviv University, Israel were used in vivo tumor therapy experiments. Animal care and experimentation was carried out in accordance with Tel-Aviv University guidelines.
Tumor cell line: The highly metastatic, poorly immunogenic mammary adenocarcinoma cell line DA3 (Lopez D M. et al., 1981. J Natl Cancer Inst. 66:191) was used to generate mammary carcinoma tumors in mice. Cells were grown in DMEM supplemented with 100 U/ml penicillin, 100 μg/ml streptomycin, 4 mM glutamine, 1 mM sodium pyruvate, 1% non-essential amino acids and 10% heat-inactivated fetal calf serum (FCS), and cultured at 37° C. in a humidified incubator in an atmosphere of 7% carbon dioxide and 93% air. Tumors of this cell line grown to 1 cm in diameter produce metastatic cells, mainly in the lungs.
Reagents: Taxol (Mead Johnson Oncology Products, A Bristol-Myers Squibb, USA), obtained as a sterile nonpyrogenic solution containing 6 mg/ml paclitaxel, 527 mg/ml of purified Cremophor EL (polyoxyethylated castor oil) and 49.7% (v/v) dehydrated ethanol; and bleomycin (MegaPharm, Israel) were the anti cancer drugs used.
Low-strength electric field enhanced cancer chemotherapy protocol: Mice were subjected to a single treatment of LEF-chemotherapy, once primary tumors reached 5 mm in diameter (about 60-70 mm^3) (11-17 days following subcutaneous tumor cell inoculation). Up to 100 μl of chemotherapeutic agents was injected into the tumor loci. The exposure to electric field was carried out as described above in Example 2 of the Examples section.
Effect of LEFCT-EC using bleomycin or taxol on the survival of DA3 mammary adenocarcinoma bearing nice: BALB/c mice bearing DA3 mammary adenocarcinoma were treated by LEF-chemotherapy with intratumoral taxol (20 mg/kg) (FIG. 19) or bleomycin (30 U/kg) (FIG. 20) administration and their survival rate was compared with that of mice treated only with LEF or chemotherapy.

B16-F10.9 melanoma [2] = assay: Rechallenge with B16-F10.9 cells of mice cured by LEFCT-EC; type: in vivo, C57BL/6 mice
Excerpt: FIG. 17 is a data plot depicting the cumulative survival of mice previously bearing B16-F10.9 melanoma and cured by LEFCT-EC with cisplatin or taxol following challenge with B16-F10.9 melanoma cells. Mice cured by LEF-chemotherapy that survived for 120-180 days after initial tumor inoculation, were challenged with 2×10^5 B16-F10.9 cells subcutaneously.
Effect of curative LEFCT-EC treatment on generation of anti B16-F10.9 tumor resistance: The resistance of mice cured of B16-F10.9 melanoma by LEF-chemotherapy was analyzed by challenging such cured mice with a tumorigenic dose of B16-F 10.9 melanoma cells.

[3] = system: DA3 mammary adenocarcinoma; assay: Winn assay: DA3 cells co-inoculated with splenocytes of cured mice; type: in vivo, BALB/c mice; conditions: 10^5 DA3 cells + 10^7 splenocytes of mice cured via LEFCT-EC with taxol
B16-F10.9 melanoma [4] = assay: LEFCT-EC in mice bearing subcutaneous B16-F10.9 melanoma; type: in vivo, C57BL/6 mice; conditions: for Tumor size (mean ± standard error): 7 days after treatment
Description: Animals: C57BL/6 male mice were obtained from the breeding colony of Tel-Aviv University, Israel. Mice were used at 8-12 weeks of age. Animal care and experimentation was carried out in accordance with Tel-Aviv University guidelines.
Melanoma tumor cell line: The highly metastatic, poorly immunogenic B16-F10.9 (F10.9) subclone of the B16 melanoma cell line was used to generate melanoma tumors in mice (Eisenbach L. et al., 1984. Int J Cancer 34:567). Cells were maintained in DMEM supplemented with 100 U/ml penicillin, 100 μg/ml streptomycin, 4 mM glutamine, 1 mM sodium pyruvate, 1% non-essential amino acids and 10% heat-inactivated fetal calf serum (FCS); and were cultured at 37° C. in a humidified incubator in an atmosphere of 7% carbon dioxide and 93% air.
Tumor generation protocol: F10.9 tumors were induced in C57BL/6 mice by subcutaneous injection of 2×10^5 F10.9 cells. Mice were subjected to experimental treatments once tumors reached 5 mm in diameter (about 60-70 mm^3). Chemotherapeutic drugs: The following chemotherapeutic drugs used were: cis-platinum (II) diamminedichloride (cisplatin; #P-4394, Sigma, Israel), dissolved in PBS for injections; Taxol (Mead Johnson Oncology Products, A Bristol-Myers Squibb, USA), obtained as a sterile nonpyrogenic solution containing 6 mg/ml paclitaxel, 527 mg/ml of purified Cremophor EL (polyoxyethylated castor oil) and 5-FU (Abic, Israel).
Low-strength electric field enhanced cancer therapy protocol: Mice were subjected to a single treatment of LEFCT-EC, once tumors reached 5 mm in diameter (11-17 days following tumor cell inoculation). Volumes of up to 100 μl of chemotherapeutic agents were injected into tumor loci, and exposures to electric fields were carried out 3-4 min following intratumoral injection of chemotherapeutic agents. To expose tumors to electric fields, stainless steel electrode needles (Karlsbader insect pins No 0. BioQuip Products, USA) soldered at their brassy ends with thin isolated copper wires were used. Electrodes were inserted to a depth of about 7 mm percutaneously into and in the immediate vicinity of the tumor; one cathode needle in the center of the tumor and three peripheral anodes, at a distance of about 5 mm from the cathode. The needles were connected to an electric pulse generator (Grass S48 Stimulator, USA). The field strength applied was about 40 V/cm; the repetition frequency, 500 Hz; and the pulse width, 180 μs. All mice were anesthetized prior to LEF treatment.
Statistical analysis: Statistical analysis of survival times (Kaplan-Meir test), survival comparisons between groups (Mantel-Cox test) and tumor volume differences between groups (Kolmogorov-Smirnov test) were performed using StatSoft Statistica statistical software. The 10-15% mortality rate in the 5 days following LEF or LEF-chemotherapy was considered as treatment-caused, therefore such cases of mortality were excluded.
Tumor volume determination: performed as described above in Example 1 of the Examples section.

B16-F10.9 melanoma [5] = assay: Surgery with taxol versus LEFCT-EC with taxol in B16-F10.9 melanoma; type: in vivo, C57BL/6 mice
Description: Comparison of surgery and LEFCT-EC: To compare the efficacy of LEFCT-EC to that of conventional surgery and chemotherapy treatments, C57BL/6 male mice (8-12 weeks old) were injected with 10^5 B16-F10.9 cells subcutaneously. Once the tumors reached 5 mm in diameter (11-17 days following inoculation), they were surgically removed. One experimental group received a single dose of taxol (20 mg/kg) subcutaneously in close proximity to the site of the operation one day following tumorectomy.

[6] = system: DA3 mammary adenocarcinoma; assay: Rechallenge with DA3 cells of mice cured by LEFCT-EC with taxol; type: in vivo, BALB/c mice; conditions: challenged with 10^5 DA3 cells
Description: Effect of curative LEFCT-EC treatment with taxol on generation of anti DA3 tumor resistance: The resistance of mice previously cured of DA3 mammary carcinoma via LEFCT-EC treatment with taxol to tumor growth following challenge by inoculation with 10^5 DA3 cells 120-180 days following initial tumor inoculation was analyzed. […] The MSTs of first-time inoculated normal mice and challenged mice were 38.1 and 46.7 days, respectively. Thus, curative treatment of DA3 tumors via LEFCT-EC treatment with taxol has the capacity to induce significant protection against growth of such a tumor in cured mice challenged with a tumorigenic dose thereof.

[7] = chemotherapy alone, intratumoral, no LEF

Structure (SMILES): CC(=O)O[C@H]1C(=O)[C@@]2(C)[C@H]([C@H](OC(=O)c3ccccc3)[C@]3(O)C[C@H](OC(=O)[C@H](O)[C@@H](NC(=O)c4ccccc4)c4ccccc4)C(C)=C1C3(C)C)[C@]1(OC(C)=O)CO[C@@H]1C[C@@H]2O [taxol, paclitaxel]
- survival time, Mean ([1]; LEF-chemotherapy with the drug): 73.8
- survival time, Median ([1]; LEF-chemotherapy with the drug): 54.5
- cure rate ([1]; LEF-chemotherapy, intratumoral taxol 20 mg/kg or bleomycin 30 U/kg, 180 days after tumor inoculation): 17%
- survival time, Mean ([1]; drug alone, intratumoral): 43.9
- survival time, Median ([1]; drug alone, intratumoral): 48
- MST of challenged mice (B16-F10.9 melanoma [2]; mice cured by LEFCT-EC with the drug, challenged with 2×10^5 B16-F10.9 cells): 73.2 days
- challenged mice that did not develop tumor (B16-F10.9 melanoma [2]; mice previously treated by LEFCT-EC with taxol): about 23.5%
- Mean survival time [3]: 39 days
- Tumor size ([3]; 14 days after inoculation): 143 µL
- Tumor size (mean ± standard error) (B16-F10.9 melanoma [4]; LEF-CT (drug + LEF), cisplatin 4 mg/kg, bleomycin 8 U/kg, 5-FU 150 mg/kg, taxol 20 mg/kg): 71 ± 25 mm^3
- mean survival time (MST) (B16-F10.9 melanoma [4]; LEF-chemotherapy: intratumoral drug + LEF about 40 V/cm 12 min, 120 days (cisplatin) or 180 days (taxol, bleomycin) after inoculation): 83.5 days
- cure rate / animals alive and free of visible tumor (B16-F10.9 melanoma [4]; LEF-chemotherapy, 180 days after tumor inoculation): 26%
- effect of drug alone on survival (B16-F10.9 melanoma [4]; [7]): no effect
- mean survival time (MST) (B16-F10.9 melanoma [4]; [7]): 36.7 days
- Tumor size (mean ± standard error) (B16-F10.9 melanoma [4]; intratumoral drug injection alone, same doses): 927 ± 177 mm^3
- LEFCT-EC treated mice that died two months and later after treatment with pulmonary metastatic foci, free of primary tumor (B16-F10.9 melanoma [4]; pooled statement for cisplatin, taxol or bleomycin): About 10%
- cure rate (B16-F10.9 melanoma [5]; LEF-chemotherapy with taxol): 26%
- survival extension (B16-F10.9 melanoma [5]; LEF-chemotherapy with taxol): 84 days
- MST (B16-F10.9 melanoma [5]; surgery + taxol 20 mg/kg subcutaneously): 55 days
- cure rate (B16-F10.9 melanoma [5]; surgery + taxol 20 mg/kg subcutaneously one day after tumorectomy): 13%
- MST of challenged mice [6]: 46.7 days
